Literature values as cited in PubChem BioAssay AID1259409 (Chemical Carcinogenesis Research Information System (CCRIS), 2018).

System: rodent chemically induced tumor inhibition, incidence and multiplicity
Experiment: CCRIS tumor inhibitor studies

Structure (SMILES): O=c1oc2c(O)c(O)cc3c(=O)oc4c(O)c(O)cc1c4c23
- tumour outcome (control, treated, inhibition, significance) (Carcinogen: BENZO[A]PYRENE, 50-32-8, Dose [Inhibitor]: 0, 2500 NMOL IN 200 µL ACETONE:METHANOL (45:55) ONCE APPLIED 5 MIN PRIOR TO CARCINOGEN DOSE (STUDY DURATION: 21 WK), Route [Inhibitor]: DERMAL, Species: MOUSE, Strain/Sex: CD-1/FEMALE, Target Tissue: Type of Lesion: SKIN: TUMOR, Dose [Carcinogen]: 50 NMOL IN ACETONE:DMSO (90:10) ONCE, Promoter: 12-O-TETRADECANOYLPHORBOL-13-ACETATE, 16561-29-8): 55%, 33%, 40%, not significant
- tumour outcome (control, treated, inhibition, significance) (Carcinogen: BENZO[A]PYRENE, 50-32-8, Dose [Inhibitor]: 100 MG/KG ADMINISTERED 1 HR BEFORE AND 6, 24, AND 48 HR AFTER BENZO[A]PYRENE TREATMENT (STUDY DURATION: 6 MO), Route [Inhibitor]: INTRAPERITONEAL, Species: MOUSE, Strain/Sex: STRAIN-A/MALE, Target Tissue: Type of Lesion: LUNG: ADENOMA, Dose [Carcinogen]: 100 MG/KG ONCE, Promoter: NONE USED): 18/18 (100%), 4/6 (67%), 33%, not significant
- tumour outcome (control, treated, inhibition, significance) (Carcinogen: BENZO[A]PYRENE, 50-32-8, Dose [Inhibitor]: 100 MG/KG ADMINISTERED 1 HR BEFORE AND 6, 24, AND 48 HR AFTER CARCINOGEN TREATMENT FOLLOWED BY 6 MO OBSERVATION PERIOD (, Route [Inhibitor]: INTRAPERITONEAL, Species: MOUSE, Strain/Sex: STRAIN-A/MALE, Target Tissue: Type of Lesion: LUNG: ADENOMA, Dose [Carcinogen]: 100 MG/KG ONCE, Promoter: NONE USED): 18/18 (100%), 4/6 (67%), 33%, not significant
- tumour outcome (control, treated, inhibition, significance) (Carcinogen: BENZO[A]PYRENE, 50-32-8, Dose [Inhibitor]: 100 MG/KG STARTING 5 D BEFORE AND CONTINUING THROUGH 10 D AFTER CARCINOGEN TREATMENT (STUDY DURATION: 6 MO), Route [Inhibitor]: ORAL, Species: MOUSE, Strain/Sex: STRAIN-A/MALE, Target Tissue: Type of Lesion: LUNG: ADENOMA, Dose [Carcinogen]: 100 MG/KG ONCE, Promoter: NONE USED): 18/18 (100%), 19/19 (100%), 0%, not significant
- tumour outcome (control, treated, inhibition, significance) (Carcinogen: BENZO[A]PYRENE, 50-32-8, Dose [Inhibitor]: 100 MG/KG/D IN DIET STARTING 5 D BEFORE AND CONTINUING TO 10 D AFTER CARCINOGEN TREATMENT FOLLOWED BY 6 MO OBSERVATION P, Route [Inhibitor]: ORAL, Species: MOUSE, Strain/Sex: STRAIN-A/MALE, Target Tissue: Type of Lesion: LUNG: ADENOMA, Dose [Carcinogen]: 100 MG/KG ONCE, Promoter: NONE USED): 18/18 (100%), 19/19 (100%), 0%, not significant
- tumour outcome (control, treated, inhibition, significance) (Carcinogen: DIBENZO[A,H]PYRENE, 189-64-0, Dose [Inhibitor]: 0, 300 NMOL (TOTAL DOSE) APPLIED 10 MIN PRIOR TO CARCINOGEN DOSE INJECTED AS 1/7, 2/7, AND 4/7 OF THE TOTAL ON DAYS 1, 8, Route [Inhibitor]: INTRAPERITONEAL, Species: MOUSE, Strain/Sex: ICR/MALE,FEMALE, Target Tissue: Type of Lesion: LUNG: TUMOR, Dose [Carcinogen]: 50 NMOL (TOTAL DOSE) INJECTED IN DOSES OF 1/7, 2/7, AND 4/7 ON DAYS 1, 8, AND 15 OF LIFE, RESPECTIVELY, Promoter: NONE USED): 95%, 100%, -5%, not significant
- tumour outcome (control, treated, inhibition, significance) (Carcinogen: DIETHYLNITROSAMINE, 55-18-5, Dose [Inhibitor]: 0, 900 MG/KG BW BY INTRAPERITONEAL INJECTION ON DAYS 13, 14 AND 15 OF AGE THEN 6 G/KG DIET FROM 21 TO 161 DAYS OF AGE (S, Route [Inhibitor]: INTRAPERITONEAL, ORAL, Species: MOUSE, Strain/Sex: C3H/MALE, Target Tissue: Type of Lesion: LIVER: ADENOMA, Dose [Carcinogen]: 4 MG/KG IN TRICAPRYLIN ONCE ON DAY 15 OF AGE, Promoter: NONE USED): 100%, 100%, 0%, not significant
- tumour outcome (control, treated, inhibition, significance) (Carcinogen: DIETHYLNITROSAMINE, 55-18-5, N-METHYLNITROSOUREA, 684-93-5, 1,2-DIMETHYLHYDRAZINE, 540-73-8, N-BUTYL-N-(4-HYDROXYB, Carcinogen: DIETHYLNITROSAMINE, 55-18-5, N-METHYLNITROSOUREA, 684-93-5, 1,2-DIMETHYLHYDRAZINE, 540-73-8, N-BUTYL-N-(4-HYDROXYB, Dose [Inhibitor]: 0, 1% IN DIET FOR 4 WK BEGINNING 1 DAY PRIOR TO CARCINOGEN TREATMENT (STUDY DURATION: 36 WK), Route [Inhibitor]: ORAL, Species: RAT, Strain/Sex: F344/MALE, Target Tissue: Type of Lesion: KIDNEY: ADENOMA, Dose [Carcinogen]: 100 MG/KG DEN ONCE, 20 MG/KG MNU 4 TIMES, 40 MG/KG DMH 4 TIMES, 0.05% BBN IN DRINKING WATER FOR 2 WK, 0.1% DHPN IN D, Dose [Carcinogen]: 100 MG/KG DEN ONCE, 20 MG/KG MNU 4 TIMES, 40 MG/KG DMH 4 TIMES, 0.05% BBN IN DRINKING WATER FOR 2 WK, 0.1% DHPN IN D, Promoter: NONE USED): 4/14 (29%), 1/12 (8%), 72%, not significant
- tumour outcome (control, treated, inhibition, significance) (Carcinogen: DIETHYLNITROSAMINE, 55-18-5, N-METHYLNITROSOUREA, 684-93-5, 1,2-DIMETHYLHYDRAZINE, 540-73-8, N-BUTYL-N-(4-HYDROXYB, Carcinogen: DIETHYLNITROSAMINE, 55-18-5, N-METHYLNITROSOUREA, 684-93-5, 1,2-DIMETHYLHYDRAZINE, 540-73-8, N-BUTYL-N-(4-HYDROXYB, Dose [Inhibitor]: 0, 1% IN DIET FOR 4 WK BEGINNING 1 DAY PRIOR TO CARCINOGEN TREATMENT (STUDY DURATION: 36 WK), Route [Inhibitor]: ORAL, Species: RAT, Strain/Sex: F344/MALE, Target Tissue: Type of Lesion: KIDNEY: NEPHROBLASTOMA, Dose [Carcinogen]: 100 MG/KG DEN ONCE, 20 MG/KG MNU 4 TIMES, 40 MG/KG DMH 4 TIMES, 0.05% BBN IN DRINKING WATER FOR 2 WK, 0.1% DHPN IN D, Dose [Carcinogen]: 100 MG/KG DEN ONCE, 20 MG/KG MNU 4 TIMES, 40 MG/KG DMH 4 TIMES, 0.05% BBN IN DRINKING WATER FOR 2 WK, 0.1% DHPN IN D, Promoter: NONE USED): 7/14 (50%), 5/12 (42%), 16%, not significant
- tumour outcome (control, treated, inhibition, significance) (Carcinogen: DIETHYLNITROSAMINE, 55-18-5, N-METHYLNITROSOUREA, 684-93-5, 1,2-DIMETHYLHYDRAZINE, 540-73-8, N-BUTYL-N-(4-HYDROXYB, Carcinogen: DIETHYLNITROSAMINE, 55-18-5, N-METHYLNITROSOUREA, 684-93-5, 1,2-DIMETHYLHYDRAZINE, 540-73-8, N-BUTYL-N-(4-HYDROXYB, Dose [Inhibitor]: 0, 1% IN DIET FOR 4 WK BEGINNING 1 DAY PRIOR TO CARCINOGEN TREATMENT (STUDY DURATION: 36 WK), Route [Inhibitor]: ORAL, Species: RAT, Strain/Sex: F344/MALE, Target Tissue: Type of Lesion: LARGE INTESTINE: ADENOMA, Dose [Carcinogen]: 100 MG/KG DEN ONCE, 20 MG/KG MNU 4 TIMES, 40 MG/KG DMH 4 TIMES, 0.05% BBN IN DRINKING WATER FOR 2 WK, 0.1% DHPN IN D, Dose [Carcinogen]: 100 MG/KG DEN ONCE, 20 MG/KG MNU 4 TIMES, 40 MG/KG DMH 4 TIMES, 0.05% BBN IN DRINKING WATER FOR 2 WK, 0.1% DHPN IN D, Promoter: NONE USED): 7/14 (50%), 5/12 (42%), 16%, not significant
- tumour outcome (control, treated, inhibition, significance) (Carcinogen: DIETHYLNITROSAMINE, 55-18-5, N-METHYLNITROSOUREA, 684-93-5, 1,2-DIMETHYLHYDRAZINE, 540-73-8, N-BUTYL-N-(4-HYDROXYB, Carcinogen: DIETHYLNITROSAMINE, 55-18-5, N-METHYLNITROSOUREA, 684-93-5, 1,2-DIMETHYLHYDRAZINE, 540-73-8, N-BUTYL-N-(4-HYDROXYB, Dose [Inhibitor]: 0, 1% IN DIET FOR 4 WK BEGINNING 1 DAY PRIOR TO CARCINOGEN TREATMENT (STUDY DURATION: 36 WK), Route [Inhibitor]: ORAL, Species: RAT, Strain/Sex: F344/MALE, Target Tissue: Type of Lesion: LARGE INTESTINE: CARCINOMA, Dose [Carcinogen]: 100 MG/KG DEN ONCE, 20 MG/KG MNU 4 TIMES, 40 MG/KG DMH 4 TIMES, 0.05% BBN IN DRINKING WATER FOR 2 WK, 0.1% DHPN IN D, Dose [Carcinogen]: 100 MG/KG DEN ONCE, 20 MG/KG MNU 4 TIMES, 40 MG/KG DMH 4 TIMES, 0.05% BBN IN DRINKING WATER FOR 2 WK, 0.1% DHPN IN D, Promoter: NONE USED): 3/14 (21%), 4/12 (33%), -57%, not significant
- tumour outcome (control, treated, inhibition, significance) (Carcinogen: DIETHYLNITROSAMINE, 55-18-5, N-METHYLNITROSOUREA, 684-93-5, 1,2-DIMETHYLHYDRAZINE, 540-73-8, N-BUTYL-N-(4-HYDROXYB, Carcinogen: DIETHYLNITROSAMINE, 55-18-5, N-METHYLNITROSOUREA, 684-93-5, 1,2-DIMETHYLHYDRAZINE, 540-73-8, N-BUTYL-N-(4-HYDROXYB, Dose [Inhibitor]: 0, 1% IN DIET FOR 4 WK BEGINNING 1 DAY PRIOR TO CARCINOGEN TREATMENT (STUDY DURATION: 36 WK), Route [Inhibitor]: ORAL, Species: RAT, Strain/Sex: F344/MALE, Target Tissue: Type of Lesion: SMALL INTESTINE: ADENOMA, Dose [Carcinogen]: 100 MG/KG DEN ONCE, 20 MG/KG MNU 4 TIMES, 40 MG/KG DMH 4 TIMES, 0.05% BBN IN DRINKING WATER FOR 2 WK, 0.1% DHPN IN D, Dose [Carcinogen]: 100 MG/KG DEN ONCE, 20 MG/KG MNU 4 TIMES, 40 MG/KG DMH 4 TIMES, 0.05% BBN IN DRINKING WATER FOR 2 WK, 0.1% DHPN IN D, Promoter: NONE USED): 6/14 (43%), 1/12 (8%), 81%, not calculated
